Results on 72 molecules are retold here after patent US10774051B2, “6-membered heterocyclic derivatives and pharmaceutical composition comprising the same” (Shionogi & Co., Ltd., priority 2015, dated 2020).

The structures appear in SMILES notation.

For one assay, the target named is human P2X7 receptor (Homo sapiens, UniProt Q99572, R270H/Y155H). Nature of the assay: Evaluation of human P2X7 receptor inhibitory activity (Yo-Pro uptake, BzATP stimulation, FLIPR TETRA). Format: cell-based. The note with it: 1321N1 cells stably expressing human P2X7 receptor; BzATP stimulation, Yo-Pro uptake; read-out: IC50 (antagonistic activity for the human P2X7 receptor). In a few lines: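 1321N1 cells stably expressing human P2X7 (T606C/G952A SNP variant), in HBSS buffer pH 7.4-7.5 with Yo-Pro, stimulated with BzATP; compound added 8 min after agonist. Fluorescence followed for 20 min on FLIPR; max-minus-min change gave % inhibition, IC50 by logistic fit.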
As for `COc1cnc(Nc2cc(N3CCCC3=O)ccc2C)n(Cc2ccc(F)c(Cl)c2)c1=O` [Compound I-0986], the half-inhibitory concentration (IC50) (as a rule, the point on the concentration scale where inhibition reaches its midpoint) stood at 24 nM.
The same measure, in the same setting: the same measure for `COc1cc(C)c(Nc2cc(=O)c(OC)cn2Cc2ccccc2)cc1C` [Compound I-0945]: 170 nM; for `COc1cn(Cc2ccc(F)c(Cl)c2)c(Nc2ccc3oc(C)cc3c2C)nc1=O` [Compound I-0825]: 9 nM.

The assay is the same for the next values; noted with them: 1321N1 cells stably expressing human P2X7 receptor; BzATP stimulation, Yo-Pro uptake; read-out: IC50 (antagonistic activity for the human P2X7 receptor), class symbol.
As to `COc1cn(Cc2ccccc2)c(Nc2cccc3occc23)nc1=O` [Compound I-0103], the 50% inhibitory concentration (IC50) was 100 to 500 nM.
Same read-out and setting: then `COc1cn(Cc2ccc(F)cc2)c(Nc2cccc(C(F)(F)F)c2Cl)nc1=O` [Compound I-0038], with 10 to 100 nM.
In the case of `COc1cn(Cc2ccccc2)c(Nc2cc(OC(C)C)ccc2C)nc1=O` [Compound I-0320], the IC50 lay in the range of 100 to 500 nM.
Same read-out and setting: the same measure for `CCOc1cc(C)c(Nc2nc(=O)c(OC)cn2Cc2ccc(F)c(Cl)c2)cc1C` [Compound I-0231]: below 10 nM.
Same read-out and setting: then `COc1cn(Cc2ccccc2)c(Nc2cc(Cl)ccc2C)nc1=O` [Compound I-0092], with 100 to 500 nM; and `COc1cn(Cc2ccc(F)c(F)c2)c(Nc2cccc(C)c2C)nc1=O` [Compound I-0324], with below 10 nM; and `COc1cn(Cc2cc(F)c(F)c(F)c2)c(Nc2cccc(C)c2C)nc1=O` [Compound I-0569], with below 10 nM.
`CCc1ccc(Cl)cc1Nc1nc(=O)c(OC)cn1Cc1cccc(Cl)c1` [Compound I-0387]: the IC50 lay within 10 to 100 nM.
For `COc1cn(Cc2ccc(F)cc2)c(Nc2cc(C)ccc2C)nc1=O` [Compound I-0332], the IC50 was 10 to 100 nM.
The same measure, in the same setting: the same measure for `COc1cn(Cc2ccccc2)c(Nc2cccc(OC(C)C)c2C)nc1=O` [Compound I-0129]: 100 to 500 nM; for `COc1cn(Cc2cc(F)cc(Cl)c2)c(Nc2cc(OC(C)C)ccc2C)nc1=O` [Compound I-0557]: 10 to 100 nM.
On to `CCc1ccc(F)cc1Nc1nc(=O)c(OC)cn1Cc1ccc(F)c(Cl)c1` [Compound I-0567], for which the half-inhibitory concentration (IC50) was 10 to 100 nM.
Still for that read-out and setting: then `COc1cn(Cc2cc(F)cc(Cl)c2)c(Nc2cc(C)c(F)cc2C)nc1=O` [Compound I-0508], with 10 to 100 nM; and `COc1cn(Cc2ccccc2)c(Nc2cc(Cl)c(Cl)cc2Cl)nc1=O` [Compound I-0154], with 100 to 500 nM; and `COc1cn(Cc2ccc(F)c(Cl)c2)c(Nc2cc(-c3ncco3)ccc2C)nc1=O` [Compound I-0549], with below 10 nM.
As for `CCc1cc(F)ccc1Nc1nc(=O)c(OC)cn1Cc1ccc(F)c(Cl)c1` [Compound I-0420], the IC50 was in the range of 10 to 100 nM.
Take `CCc1ccccc1Nc1nc(=O)c(OC)cn1Cc1ccc(F)c(Cl)c1` [Compound I-0252]: the 50% inhibitory concentration (IC50) is below 10 nM.
On the same count and under the same terms, then `COc1cn(Cc2ccccc2)c(Nc2cc3[nH]ncc3cc2C)nc1=O` [Compound I-0221], with 10 to 100 nM; and `COc1cn(Cc2cc(F)ccc2F)c(Nc2cccc(Cl)c2C)nc1=O` [Compound I-0328], with 10 to 100 nM.
`COc1cn(Cc2ccccc2)c(Nc2cc(Cl)c(Cl)cc2C)nc1=O` [Compound I-0476]: the IC50 is below 10 nM.
Turning to `COc1cn(Cc2ccc(F)c(Cl)c2)c(Nc2cccc(C)c2Cl)nc1=O` [Compound I-0483], the concentration for half-maximal inhibition (IC50) was below 10 nM.
The same measure, in the same setting: then `COc1cn(Cc2ccccc2)c(Nc2cc(C)c(C)cc2C)nc1=O` [Compound I-0357], with 500 to 1000 nM; and `CCc1ccccc1Nc1nc(=O)c(F)cn1Cc1ccccc1` [Compound I-0157], with 10 to 100 nM.
The same measure, in the same setting: then `COc1cc(C)c(Nc2nc(=O)c(F)cn2Cc2ccc(F)cc2)cc1OC` [Compound I-0209], with below 10 nM; and `COc1cn(Cc2cc(F)cc(C(F)(F)F)c2)c(Nc2cccc(Cl)c2C)nc1=O` [Compound I-0582], with 100 to 500 nM.
Regarding `COc1cn(Cc2ccc(F)c(F)c2)c(Nc2ccc(OC(C)C)cc2C)nc1=O` [Compound I-0530], the IC50 is 10 to 100 nM.
The same measure, in the same setting: then `CCc1ccccc1CNc1nc(=O)c(OC)cn1Cc1cc(F)cc(F)c1` [Compound I-0454], with 10 to 100 nM; and `COc1cn(Cc2ccc(F)c(F)c2)c(Nc2cccc(C(F)(F)F)c2C)nc1=O` [Compound I-0467], with below 10 nM.

The same assay, now with this note: antagonistic activity for the human P2X7 receptor; read-out: IC50.
`Cc1cc(S(C)(=O)=O)cc(Nc2nc(=O)c(F)cn2Cc2cc(F)c(F)c(F)c2)c1C` [Compound I-1212]: the IC50 is below 10 nM.
Still for that read-out and setting: the same measure for `Cc1cc(CO)ccc1Nc1nc(=O)c(F)cn1Cc1cc(F)c(F)c(F)c1` [Compound I-1236]: below 10 nM.
Take `CCc1ccccc1Nc1nc(=O)c(OC)cn1Cc1ccc(F)c(F)c1` [Compound I-0674]: the concentration for half-maximal inhibition (IC50) is 10 to 100 nM.
For the molecule `COc1cn(Cc2ccccc2)c(Nc2cc(Oc3ccccn3)ccc2C)nc1=O` [Compound I-0895], the half-maximal inhibitory concentration (IC50) is 10 to 100 nM.
For the molecule `COc1cn(Cc2cc(F)cc(F)c2)c(Nc2cc(-c3ccnn3C)ccc2C)nc1=O` [Compound I-0784], the IC50 was 10 to 100 nM.
Still for that read-out and setting: then `Cc1c(Nc2nc(=O)c(F)cn2Cc2cc(F)c(F)c(F)c2)ccc2[nH]ccc12` [Compound I-1120], with below 10 nM; and `COc1cn(Cc2ccc(F)c(F)c2)c(Nc2cc(Cl)c(F)cc2C)nc1=O` [Compound I-0810], with 10 to 100 nM; and `Cc1c(F)cccc1Nc1nc(=O)c(F)cn1Cc1cc(F)c(F)c(F)c1` [Compound I-1181], with below 10 nM.
On the same count and under the same terms, the same measure for `COc1cccc(Nc2nc(=O)c(OC)cn2Cc2cccc(F)c2)c1C` [Compound I-0642]: below 10 nM.
As to `COc1ccc(Nc2nc(=O)c(C#N)cn2Cc2cc(F)c(F)c(F)c2)c(C)c1` [Compound I-1112], the IC50 is 10 to 100 nM.
Turning to `COc1cn(Cc2ccccc2)c(Nc2cc(C)c(OCC(F)(F)F)cc2C)nc1=O` [Compound I-0800], the IC50 was in the range of 10 to 100 nM.
Same read-out and setting: the same measure for `Cc1cc2[nH]ncc2cc1Nc1nc(=O)c(F)cn1Cc1ccc(F)c(Cl)c1` [Compound I-1093]: 10 to 100 nM; for `COc1cc(Nc2nc(=O)c(F)cn2Cc2cc(F)cc(F)c2)c(C)nc1F` [Compound I-1118]: 100 to 500 nM; for `COc1cc(C)c(Nc2nc(=O)cnn2Cc2cc(F)c(F)c(F)c2)cc1Cl` [Compound I-1278]: below 10 nM.
Consider `C=C(C)c1ccc(C)c(Nc2nc(=O)c(OC)cn2Cc2ccccc2)c1` [Compound I-0722], for which the half-inhibitory concentration (IC50) lay in the range of 10 to 100 nM.
Same read-out and setting: then `Cc1cc(C(F)F)ccc1Nc1nc(=O)c(F)cn1Cc1cc(F)c(F)c(F)c1` [Compound I-1237], with below 10 nM; and `O=c1nc(Nc2cccc3[nH]ccc23)n(Cc2ccc(F)c(F)c2)cc1F` [Compound I-1025], with below 10 nM.
Still for that read-out and setting: then `O=c1nc(Nc2cccc3[nH]ccc23)n(Cc2ccc(F)c(Cl)c2)cc1F` [Compound I-1024], with below 10 nM.
Take `COc1cc(Nc2nc(=O)c(OC)cn2Cc2ccccc2)c(C)cc1C` [Compound I-0585]: the IC50 was below 10 nM.
The same measure, in the same setting: the same measure for `COc1ccc(Nc2nc(=O)cnn2Cc2ccc(F)cc2)c(C)c1` [Compound I-1273]: below 10 nM; for `COc1cn(Cc2ccc(F)c(Cl)c2)c(Nc2ccc3nc(C)sc3c2C)nc1=O` [Compound I-0859]: 10 to 100 nM; for `Cc1cc(Nc2nc(=O)c(F)cn2Cc2cc(F)c(F)c(F)c2)c(Cl)cc1F` [Compound I-1225]: below 10 nM.
Still for that read-out and setting: then `Cc1ccc(-c2nnco2)cc1Nc1nc(=O)c(Cl)cn1Cc1cc(F)cc(F)c1` [Compound I-0699], with below 10 nM.
Same read-out and setting: the same measure for `COc1nc(C)c(Nc2nc(=O)c(F)cn2Cc2cc(F)cc(F)c2)cc1C` [Compound I-1003]: below 10 nM; for `COc1cn(Cc2cc(F)cc(Cl)c2)c(Nc2cc(-n3cccc3)ccc2C)nc1=O` [Compound I-0654]: 10 to 100 nM; for `COc1cn(Cc2cc(F)cc(F)c2)c(Nc2cc3c(cc2C)OC(F)(F)O3)nc1=O` [Compound I-0726]: 100 to 500 nM.
With `COc1cn(Cc2cc(F)cc(Cl)c2)c(Nc2cc(OC(F)F)ccc2C)nc1=O` [Compound I-0872], the IC50 fell in the range of 10 to 100 nM.
Consider `COc1ccc(Nc2nc(=O)c(OC)cn2Cc2cc(F)cc(Cl)c2)c(C)c1` [Compound I-0608], for which the IC50 is 10 to 100 nM.
Same read-out and setting: then `Cc1ccc(CO)cc1Nc1nc(=O)c(F)cn1Cc1cc(F)cc(F)c1` [Compound I-1014], with below 10 nM; and `Cc1ccc(-c2ncco2)cc1Nc1nc(=O)c(Cl)cn1Cc1cc(F)cc(F)c1` [Compound I-0854], with below 10 nM.
`Cc1cc(Cl)ccc1Nc1nc(=O)c(F)cn1Cc1cc(F)c(F)c(F)c1` [Compound I-1192]: the IC50 is below 10 nM.
For `COc1cc(C)c(Nc2nc(=O)c(OC)cn2Cc2ccc(F)cc2)cc1Cl` [Compound I-0615], the IC50 was below 10 nM.
Take `COc1cc(C)c(Nc2nc(=O)c(OC)cn2Cc2cc(F)cc(F)c2)cc1Cl` [Compound I-0617]: the half-maximal inhibitory concentration (IC50) is below 10 nM.
Still for that read-out and setting: the same measure for `CCOc1ccc(Nc2nc(=O)c(OC)cn2Cc2cc(F)c(F)c(F)c2)c(C)c1` [Compound I-0725]: below 10 nM; for `Cc1cc2cc(Nc3nc(=O)c(F)cn3Cc3ccc(F)c(Cl)c3)c(C)cc2[nH]1` [Compound I-1055]: 10 to 100 nM; for `COCc1ccc(C)c(Nc2nc(=O)c(F)cn2Cc2ccc(F)c(Cl)c2)c1` [Compound I-1085]: below 10 nM.
As to `COc1cn(Cc2ccc(F)c(F)c2)c(Nc2cc(C)cc3[nH]ccc23)nc1=O` [Compound I-0645], the IC50 was in the range of 10 to 100 nM.
The same measure, in the same setting: the same measure for `COc1cc(Nc2nc(=O)cnn2Cc2cc(F)c(F)c(F)c2)c(C)cc1Cl` [Compound I-1279]: below 10 nM.
Regarding `COc1cn(Cc2cc(F)c(F)c(F)c2)c(Nc2c(C)ccc(C)c2F)nc1=O` [Compound I-0929], the IC50 was below 10 nM.
On the same count and under the same terms, then `Cc1nc2cc(C)c(Nc3nc(=O)c(Cl)cn3Cc3ccc(F)c(Cl)c3)cc2s1` [Compound I-0787], with below 10 nM.
On the same count and under the same terms, then `COCCOc1ccc(C)c(Nc2nc(=O)c(F)cn2Cc2cc(F)c(F)c(F)c2)c1` [Compound I-1179], with below 10 nM.
